For test [1], the target named is T1, Activin receptor type-1B (Homo sapiens) (UniProt P36896).
T1 sequence (whole entry): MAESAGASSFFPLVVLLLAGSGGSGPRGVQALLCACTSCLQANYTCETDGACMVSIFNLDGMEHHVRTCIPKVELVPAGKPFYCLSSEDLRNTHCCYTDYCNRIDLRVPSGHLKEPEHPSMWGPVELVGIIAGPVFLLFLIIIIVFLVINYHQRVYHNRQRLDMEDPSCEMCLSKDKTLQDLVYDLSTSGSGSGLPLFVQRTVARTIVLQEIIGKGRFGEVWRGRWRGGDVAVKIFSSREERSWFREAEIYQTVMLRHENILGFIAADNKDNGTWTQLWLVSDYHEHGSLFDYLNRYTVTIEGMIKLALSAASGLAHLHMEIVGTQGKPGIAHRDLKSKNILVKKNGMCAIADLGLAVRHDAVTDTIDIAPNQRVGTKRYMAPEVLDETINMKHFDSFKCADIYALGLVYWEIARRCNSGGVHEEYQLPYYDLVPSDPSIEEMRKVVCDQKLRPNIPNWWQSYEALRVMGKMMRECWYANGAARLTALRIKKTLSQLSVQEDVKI
The test is described as follows: ALK4(h) Eurofins kinase panel. Conditions: Compound concentration 1.0 uM.

Test [2] concerns the target Phosphatidylinositol 4-phosphate 5-kinase type-1 alpha (Homo sapiens) (UniProt Q99755). The test is described as follows: PIP5K1a(h) Eurofins kinase panel. Conditions: Compound concentration 1.0 uM.
Test [3] deals with Receptor tyrosine-protein kinase erbB-2 (Homo sapiens) (UniProt P04626). The test is described as follows: ErbB2(h) Eurofins kinase panel. Conditions: Compound concentration 1.0 uM.
Sequence of Receptor tyrosine-protein kinase erbB-2 (Homo sapiens) (P04626 whole entry): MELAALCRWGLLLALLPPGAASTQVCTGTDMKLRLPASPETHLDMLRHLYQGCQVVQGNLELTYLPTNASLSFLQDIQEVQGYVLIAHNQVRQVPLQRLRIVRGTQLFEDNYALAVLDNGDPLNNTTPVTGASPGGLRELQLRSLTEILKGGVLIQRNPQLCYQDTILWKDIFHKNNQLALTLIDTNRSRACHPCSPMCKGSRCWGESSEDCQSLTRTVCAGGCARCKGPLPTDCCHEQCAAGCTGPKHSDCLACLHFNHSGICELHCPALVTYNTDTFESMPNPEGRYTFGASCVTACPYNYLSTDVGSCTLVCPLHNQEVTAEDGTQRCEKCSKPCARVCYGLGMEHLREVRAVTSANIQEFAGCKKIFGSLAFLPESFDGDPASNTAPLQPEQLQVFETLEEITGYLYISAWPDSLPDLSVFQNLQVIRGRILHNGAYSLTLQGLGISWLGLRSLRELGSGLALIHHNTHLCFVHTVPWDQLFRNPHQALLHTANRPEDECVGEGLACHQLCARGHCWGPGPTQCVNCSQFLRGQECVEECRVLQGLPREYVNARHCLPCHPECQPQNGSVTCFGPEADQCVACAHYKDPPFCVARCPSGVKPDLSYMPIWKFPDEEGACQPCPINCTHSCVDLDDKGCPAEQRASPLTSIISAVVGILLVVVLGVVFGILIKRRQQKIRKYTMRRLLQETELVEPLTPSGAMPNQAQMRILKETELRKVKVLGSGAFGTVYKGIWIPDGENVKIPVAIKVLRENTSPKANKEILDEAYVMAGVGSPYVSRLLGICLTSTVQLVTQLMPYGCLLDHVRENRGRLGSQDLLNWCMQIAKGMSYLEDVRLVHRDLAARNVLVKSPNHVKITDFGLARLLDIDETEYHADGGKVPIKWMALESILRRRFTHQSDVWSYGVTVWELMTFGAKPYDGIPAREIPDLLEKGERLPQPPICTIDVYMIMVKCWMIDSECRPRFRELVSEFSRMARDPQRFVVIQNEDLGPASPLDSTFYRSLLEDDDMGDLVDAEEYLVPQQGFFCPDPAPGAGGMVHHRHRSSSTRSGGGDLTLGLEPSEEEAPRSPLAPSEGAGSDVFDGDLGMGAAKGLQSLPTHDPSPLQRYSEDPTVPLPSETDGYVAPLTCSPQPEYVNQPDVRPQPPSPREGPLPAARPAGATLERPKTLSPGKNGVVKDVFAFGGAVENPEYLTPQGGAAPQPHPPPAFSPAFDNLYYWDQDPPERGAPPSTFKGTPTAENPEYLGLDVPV
Test [4] concerns the target T2, Serine/threonine-protein kinase D2 (Homo sapiens) (UniProt Q9BZL6).
T2 sequence (whole entry): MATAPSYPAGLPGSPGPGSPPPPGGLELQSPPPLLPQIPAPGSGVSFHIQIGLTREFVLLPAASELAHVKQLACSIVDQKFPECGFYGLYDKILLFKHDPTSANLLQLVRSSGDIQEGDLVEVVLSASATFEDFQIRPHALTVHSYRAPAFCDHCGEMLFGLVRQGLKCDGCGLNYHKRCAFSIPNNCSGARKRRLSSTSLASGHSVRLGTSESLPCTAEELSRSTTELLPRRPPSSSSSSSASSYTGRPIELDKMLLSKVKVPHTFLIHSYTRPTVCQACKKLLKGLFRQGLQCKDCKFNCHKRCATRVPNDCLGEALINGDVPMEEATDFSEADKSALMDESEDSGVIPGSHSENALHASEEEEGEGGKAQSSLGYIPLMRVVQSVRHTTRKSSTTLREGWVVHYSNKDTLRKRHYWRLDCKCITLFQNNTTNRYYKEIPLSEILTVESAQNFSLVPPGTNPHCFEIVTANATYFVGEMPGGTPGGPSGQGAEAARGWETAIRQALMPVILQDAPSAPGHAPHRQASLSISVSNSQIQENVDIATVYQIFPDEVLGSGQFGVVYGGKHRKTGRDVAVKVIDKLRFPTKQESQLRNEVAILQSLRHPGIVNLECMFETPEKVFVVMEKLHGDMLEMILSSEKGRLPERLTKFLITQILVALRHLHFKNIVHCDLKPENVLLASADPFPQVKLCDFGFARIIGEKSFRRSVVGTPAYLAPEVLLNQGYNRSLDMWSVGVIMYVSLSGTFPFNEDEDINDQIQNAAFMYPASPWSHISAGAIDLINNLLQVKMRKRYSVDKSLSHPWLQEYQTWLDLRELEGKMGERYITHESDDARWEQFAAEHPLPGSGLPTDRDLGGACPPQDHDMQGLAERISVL
As to the kind of experiment: PKD2(h) Eurofins kinase panel. Conditions: Compound concentration 1.0 uM.

In the next test the test system is AMO1. The test is described as follows: AMO-1 cell line Proliferation assay. Format: functional, Homo sapiens. The note with it: time 3 day.
For test [5], the target named is Tyrosine-protein kinase CSK (Homo sapiens) (UniProt P41240). The test is described as follows: CSK(h) Eurofins kinase panel. The note with it: Compound concentration 1.0 uM.
Sequence of Tyrosine-protein kinase CSK (Homo sapiens) (P41240 2-450 limits assumed): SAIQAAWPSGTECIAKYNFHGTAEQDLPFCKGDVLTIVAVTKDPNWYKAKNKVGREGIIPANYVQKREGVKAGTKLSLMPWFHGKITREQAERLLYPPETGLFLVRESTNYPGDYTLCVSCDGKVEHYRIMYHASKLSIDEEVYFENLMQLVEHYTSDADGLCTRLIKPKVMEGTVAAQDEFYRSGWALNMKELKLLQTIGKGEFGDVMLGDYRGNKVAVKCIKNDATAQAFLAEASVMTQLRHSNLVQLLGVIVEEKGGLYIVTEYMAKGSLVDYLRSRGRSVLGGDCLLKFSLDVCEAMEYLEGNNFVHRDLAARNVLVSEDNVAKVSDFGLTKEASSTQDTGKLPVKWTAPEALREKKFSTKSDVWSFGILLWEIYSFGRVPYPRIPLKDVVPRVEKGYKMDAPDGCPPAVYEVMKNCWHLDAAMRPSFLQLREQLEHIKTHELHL
Test [6] addresses T3, Serine/threonine-protein kinase 3 (Homo sapiens) (UniProt Q13188).
T3 sequence (whole entry): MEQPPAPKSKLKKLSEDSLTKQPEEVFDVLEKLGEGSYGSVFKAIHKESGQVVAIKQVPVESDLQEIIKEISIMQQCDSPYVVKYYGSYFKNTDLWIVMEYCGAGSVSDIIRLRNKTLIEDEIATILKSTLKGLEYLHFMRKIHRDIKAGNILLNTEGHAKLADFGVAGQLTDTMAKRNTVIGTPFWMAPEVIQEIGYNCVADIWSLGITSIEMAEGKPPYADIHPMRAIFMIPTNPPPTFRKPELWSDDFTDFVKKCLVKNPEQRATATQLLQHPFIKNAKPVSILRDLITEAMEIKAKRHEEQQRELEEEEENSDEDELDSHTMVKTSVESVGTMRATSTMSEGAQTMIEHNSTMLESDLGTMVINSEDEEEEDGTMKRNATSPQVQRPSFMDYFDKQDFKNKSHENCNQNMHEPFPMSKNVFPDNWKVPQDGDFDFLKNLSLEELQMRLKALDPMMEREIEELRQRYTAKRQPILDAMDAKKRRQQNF
As to the kind of experiment: MST2(h) Eurofins kinase panel. The note with it: Compound concentration 1.0 uM.

For test [7], the target named is T4, G protein-coupled receptor kinase 3 (Homo sapiens) (UniProt P35626).
T4 sequence (whole entry): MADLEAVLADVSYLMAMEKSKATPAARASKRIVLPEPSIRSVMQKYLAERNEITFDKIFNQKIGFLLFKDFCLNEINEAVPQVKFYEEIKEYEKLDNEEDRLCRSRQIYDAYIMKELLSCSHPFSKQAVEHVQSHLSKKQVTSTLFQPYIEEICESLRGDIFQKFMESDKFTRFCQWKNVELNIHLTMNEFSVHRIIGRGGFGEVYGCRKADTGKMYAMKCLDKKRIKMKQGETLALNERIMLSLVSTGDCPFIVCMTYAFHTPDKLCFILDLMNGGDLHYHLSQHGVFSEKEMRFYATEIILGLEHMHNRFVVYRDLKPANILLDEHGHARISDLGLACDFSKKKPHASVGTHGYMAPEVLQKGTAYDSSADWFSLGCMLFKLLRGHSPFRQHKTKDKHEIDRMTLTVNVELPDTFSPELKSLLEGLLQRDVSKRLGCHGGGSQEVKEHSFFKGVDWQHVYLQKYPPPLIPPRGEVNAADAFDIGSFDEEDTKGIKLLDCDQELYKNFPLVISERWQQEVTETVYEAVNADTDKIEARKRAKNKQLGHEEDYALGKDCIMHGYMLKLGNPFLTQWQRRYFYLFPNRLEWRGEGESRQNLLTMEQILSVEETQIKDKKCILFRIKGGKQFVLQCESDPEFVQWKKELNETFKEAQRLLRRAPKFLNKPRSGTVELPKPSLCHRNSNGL
As to the kind of experiment: GRK3(h) Eurofins kinase panel. Conditions: Compound concentration 1.0 uM.

In test [8] the target is Dual specificity protein kinase CLK4 (Homo sapiens) (UniProt Q9HAZ1). The test is described as follows: CLK4(h) Eurofins kinase panel. The note with it: Compound concentration 1.0 uM.
Sequence of Dual specificity protein kinase CLK4 (Homo sapiens) (Q9HAZ1 whole entry, looked up, the tested form may be a part): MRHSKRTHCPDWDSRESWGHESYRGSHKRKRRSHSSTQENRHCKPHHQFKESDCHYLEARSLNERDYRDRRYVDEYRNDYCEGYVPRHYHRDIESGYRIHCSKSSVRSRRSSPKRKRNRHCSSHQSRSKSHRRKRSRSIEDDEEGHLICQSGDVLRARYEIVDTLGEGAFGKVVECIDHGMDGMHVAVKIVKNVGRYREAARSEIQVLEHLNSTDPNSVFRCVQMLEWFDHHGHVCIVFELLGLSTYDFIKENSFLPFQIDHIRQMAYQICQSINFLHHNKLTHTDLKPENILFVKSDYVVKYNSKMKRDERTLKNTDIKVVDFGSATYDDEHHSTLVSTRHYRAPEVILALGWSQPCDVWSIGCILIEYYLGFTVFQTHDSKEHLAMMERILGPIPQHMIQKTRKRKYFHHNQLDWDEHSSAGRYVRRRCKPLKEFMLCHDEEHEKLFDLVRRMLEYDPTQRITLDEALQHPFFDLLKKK
Test [9] addresses LIM domain kinase 1 (Homo sapiens) (UniProt P53667). As to the kind of experiment: LIMK1(h) Eurofins kinase panel. Conditions: Compound concentration 1.0 uM.

Sequence of LIM domain kinase 1 (Homo sapiens) (P53667 whole entry, looked up, the tested form may be a part): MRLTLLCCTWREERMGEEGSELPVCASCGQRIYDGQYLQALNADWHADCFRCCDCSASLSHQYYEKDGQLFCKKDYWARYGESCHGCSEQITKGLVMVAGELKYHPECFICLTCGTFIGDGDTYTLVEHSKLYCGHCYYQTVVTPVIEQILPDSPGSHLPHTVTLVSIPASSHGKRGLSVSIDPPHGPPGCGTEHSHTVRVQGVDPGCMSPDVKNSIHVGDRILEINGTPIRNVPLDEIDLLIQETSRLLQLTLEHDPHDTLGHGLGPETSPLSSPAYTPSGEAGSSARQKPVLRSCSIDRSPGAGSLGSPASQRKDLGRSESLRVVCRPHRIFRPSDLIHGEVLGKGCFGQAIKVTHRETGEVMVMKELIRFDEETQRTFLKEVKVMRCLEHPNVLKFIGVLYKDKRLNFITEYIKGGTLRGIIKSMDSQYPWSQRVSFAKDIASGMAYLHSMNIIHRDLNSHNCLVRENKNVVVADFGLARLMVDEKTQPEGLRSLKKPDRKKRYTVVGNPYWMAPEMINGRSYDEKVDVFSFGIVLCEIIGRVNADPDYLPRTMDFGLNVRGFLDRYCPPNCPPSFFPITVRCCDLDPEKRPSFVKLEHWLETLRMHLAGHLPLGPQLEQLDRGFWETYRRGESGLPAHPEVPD
Sequence of Phosphatidylinositol 4-phosphate 5-kinase type-1 alpha (Homo sapiens) (Q99755 whole entry): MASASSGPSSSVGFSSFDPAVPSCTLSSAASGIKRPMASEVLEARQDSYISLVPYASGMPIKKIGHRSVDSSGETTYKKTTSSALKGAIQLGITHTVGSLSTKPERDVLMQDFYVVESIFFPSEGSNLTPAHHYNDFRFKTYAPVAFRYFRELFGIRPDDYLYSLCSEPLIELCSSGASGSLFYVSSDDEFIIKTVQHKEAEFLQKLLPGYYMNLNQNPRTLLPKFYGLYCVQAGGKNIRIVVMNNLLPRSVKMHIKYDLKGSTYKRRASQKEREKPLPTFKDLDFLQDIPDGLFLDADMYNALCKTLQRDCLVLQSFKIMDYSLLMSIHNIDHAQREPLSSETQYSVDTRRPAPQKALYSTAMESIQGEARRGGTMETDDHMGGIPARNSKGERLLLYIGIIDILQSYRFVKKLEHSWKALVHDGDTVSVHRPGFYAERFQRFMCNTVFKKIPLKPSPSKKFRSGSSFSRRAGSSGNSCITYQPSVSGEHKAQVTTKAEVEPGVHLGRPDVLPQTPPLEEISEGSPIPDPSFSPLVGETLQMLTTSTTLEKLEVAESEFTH

As to `CCc1ccccc1C(=O)Nc1n[nH]c2c(C)c(F)c(C3C(C#N)=C(C)N(C)C(C)=C3C#N)cc12` [BAY-3827], the % residual kinase activity was 90% in [1]; 100% in [2]; 95% in test [3]; 98% in test [4]; 90% in test [5]; 47% in [6]. For the same molecule, the % residual kinase activity was 106% in [7], 104% in test [8] and 95% in test [9]. The “Cell Proliferation IC50” value in the test on AMO1 was >33 µM.

Source of the values: ChEMBL document CHEMBL4507319 (2021).
